Experimental data reported in paper PMC4634939 (Journal of medicinal chemistry, 2015).

Experiments:
TLR4 = molecular target: T1, TLR4 (Mus musculus, UniProt Q9JHF9+Q9QUK6)
T1 sequence (Q9QUK6 26-835): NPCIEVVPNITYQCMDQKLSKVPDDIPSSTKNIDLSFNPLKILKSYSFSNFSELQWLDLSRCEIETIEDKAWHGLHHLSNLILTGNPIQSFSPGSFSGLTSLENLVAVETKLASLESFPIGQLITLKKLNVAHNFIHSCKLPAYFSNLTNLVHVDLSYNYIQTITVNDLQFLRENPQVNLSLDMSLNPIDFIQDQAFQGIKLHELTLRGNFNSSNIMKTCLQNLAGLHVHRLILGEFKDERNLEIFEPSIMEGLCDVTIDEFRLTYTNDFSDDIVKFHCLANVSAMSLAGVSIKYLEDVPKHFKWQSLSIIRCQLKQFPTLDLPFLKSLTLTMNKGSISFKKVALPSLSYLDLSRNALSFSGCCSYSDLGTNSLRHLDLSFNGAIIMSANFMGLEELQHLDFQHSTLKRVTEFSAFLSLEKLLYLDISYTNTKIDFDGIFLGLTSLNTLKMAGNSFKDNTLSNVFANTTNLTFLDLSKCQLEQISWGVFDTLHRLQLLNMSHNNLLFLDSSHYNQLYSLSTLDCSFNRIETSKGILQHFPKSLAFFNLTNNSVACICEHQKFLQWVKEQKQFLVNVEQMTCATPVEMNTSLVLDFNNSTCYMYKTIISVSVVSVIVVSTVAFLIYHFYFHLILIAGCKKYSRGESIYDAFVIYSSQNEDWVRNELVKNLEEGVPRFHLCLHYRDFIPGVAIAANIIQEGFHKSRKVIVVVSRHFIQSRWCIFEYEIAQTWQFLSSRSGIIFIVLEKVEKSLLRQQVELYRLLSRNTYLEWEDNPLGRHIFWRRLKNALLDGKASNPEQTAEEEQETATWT
T1 sequence (Q9JHF9 19-160): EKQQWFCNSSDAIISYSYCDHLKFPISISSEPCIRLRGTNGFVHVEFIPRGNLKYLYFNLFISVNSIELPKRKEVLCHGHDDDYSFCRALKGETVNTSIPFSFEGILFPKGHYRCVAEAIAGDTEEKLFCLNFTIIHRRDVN

[1] = Hargreaves test for analgesia; conditions: rat, intrathecal morphine 15 μg plus vehicle, P < 0.05

SMILES | ratio of cell viability IC50 (cytotoxicity) to TLR4 antagonist activity (TLR4; IC50 of viability / IC50 of NO) | TLR4 antagonist activity, times better than (+)-naltrexone (TLR4; relative to (+)-naltrexone 1a, NO assay in BV-2 cells) | analgesia to radiant heat compared to baseline [1]
O=C1CC[C@]2(O)[C@@H]3Cc4ccc(O)c5c4[C@]2(CCN3CCc2ccccc2)[C@@H]1O5 [1j, (4S,4aR,7aS,12bR)-4a,9-Dihydroxy-3-phenethyl-2,3,4,4a,5,6-hexahydro-1H-4,12-methanobenzofuro[3,2-e]isoquinolin-7(7aH)-one] | ~ 100 | ~ 75 fold | –
CN1CC[C@]23c4c5ccc(O)c4O[C@H]2[C@@H](O)C=C[C@H]3[C@H]1C5 [morphine] | – | – | produced significant analgesia to radiant heat
